This is an account of results in patent publication US9708314B2, “Heterocyclic amide compound” (NISSAN CHEMICAL INDUSTRIES, LTD., priority 2013, dated 2017).

Holding throughout (type): in vivo
The subject of one series is Scirpus juncoides. The series is described as follows: Test Example 2: herbicidal activity, application during weed generation in submerged conditions. Conditions: Eighteenth Table; application herbicide amount 320 g/ha. Put shortly:
(§1)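 Paddy-type pot test: flooded soil, 4 cm depth, greenhouse 25–30 °C. Emulsion formulation diluted in water, applied to water surface at 1–2 leaf stage; rate expressed as g/ha. Read-out at 3 wk, 0–5 score.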

The next series has as its system Monochoria vaginalis. Described as above. As to conditions: Eighteenth Table; application herbicide amount 320 g/ha. Put shortly:
as §1

Series [1] has as its system Echinochloa oryzacola Vasing. Described as above. As to conditions: Eighteenth Table; application herbicide amount 320 g/ha. Put shortly:
as §1

Series [2] deals with Beta vulgaris ssp. vulgaris. Put plainly: Test Example 4: effect on crop by application to foliage (diluvial soil, plastic box). As to conditions: Application herbicide amount 320 g/ha; effect on crop. Put shortly: (§2)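 Read-out is a 0–5 visual grade of herbicidal ratio (5: ≥90%, almost withered; 0: ≤5%) taken three weeks after treatment. Compound was applied as a diluted emulsion to stem and leaf parts of 14-day greenhouse-grown plants (25° C. to 30° C.) at rates expressed as g/ha.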

Another series deals with Glycine max. The series is described as above. Conditions: Application herbicide amount 320 g/ha; effect on crop. Put shortly:
as §2

The next series concerns Zea mays. Described as above. As to conditions: Application herbicide amount 320 g/ha; effect on crop. Put shortly:
as §2

Series [3] relates to directly sowed Oryza sativa. The series is described as above. As to conditions: Application herbicide amount 320 g/ha; effect on crop. Put shortly:
as §2

Another series has as its system Brassica campestris L. Described as above. As to conditions: Application herbicide amount 320 g/ha; effect on crop. Put shortly: as §2
Another series has as its system Triticum aestivum. The description is as above. As to conditions: Application herbicide amount 320 g/ha; effect on crop. Put shortly: as §2
The next series has as its system Veronica persica. The series is described as follows: Test Example 4: herbicidal effect by application to foliage (diluvial soil, plastic box). Conditions: Application herbicide amount 320 g/ha. Put shortly: as §2
The subject of the next series is Lolium multiflorum Lam. The description is as above. As to conditions: Application herbicide amount 320 g/ha. Put shortly: as §2
A further series concerns Apera spica-venti. Described as above. Conditions: Application herbicide amount 320 g/ha. Put shortly:
as §2

For the next series, the system named is Chenopodium album. Described as above. As to conditions: Application herbicide amount 320 g/ha. Put shortly: as §2
Another series relates to Abutilon theophrasti. The series is described as above. Conditions: Application herbicide amount 320 g/ha. Put shortly:
as §2

A further series deals with Digitaria ciliaris. The description is as above. As to conditions: Application herbicide amount 320 g/ha. Put shortly: as §2
A further series deals with Alopecurus myosuroides. The description is as above. Conditions: Application herbicide amount 320 g/ha. Put shortly: as §2
The subject of the next series is Setaria viridis. The series is described as above. Conditions: Application herbicide amount 320 g/ha. Put shortly: as §2
A further series deals with Galium spurium. The series is described as above. Conditions: Application herbicide amount 320 g/ha. Put shortly:
as §2

The subject of another series is Avena fatua. Described as above. Conditions: Application herbicide amount 320 g/ha. Put shortly:
as §2

The test system of series [4] is Echinochloa crus-galli var. crus-galli. The description is as above. As to conditions: Application herbicide amount 320 g/ha. Put shortly: as §2

For the molecule `Cc1nnc(NC(=O)c2ccc(C(F)(F)C(F)(F)F)n3c(C(C)C)nnc23)o1` [1-066], in the series with Scirpus juncoides, the “B (Scirpus juncoides) herbicidal ratio grade” value was 3 (Herbicidal ratio of 40% or more and less than 70%). In addition, in the series on Monochoria vaginalis, the “C (Monochoria vaginalis) herbicidal ratio grade” value was 2 (Herbicidal ratio of 20% or more and less than 40%). Also, the “A (Echinochloa oryzicola Vasing.) herbicidal ratio grade” value in series [1] was 2 (Herbicidal ratio of 20% or more and less than 40%). In addition, the f in [2] was 4 (Herbicidal ratio of 70% or more and less than 90%). Moreover, in the series on Glycine max, the c is listed as 0 (Herbicidal ratio of 5% or less (almost no effect)). The b in the series with Zea mays is given as 0 (Herbicidal ratio of 5% or less (almost no effect)). The d in series [3] is 3 (Herbicidal ratio of 40% or more and less than 70%). The g with Brassica campestris L. was 0 (Herbicidal ratio of 5% or less (almost no effect)). The e in the series on Triticum aestivum is recorded as 0 (Herbicidal ratio of 5% or less (almost no effect)). Further, the R in the series with Veronica persica is 4 (Herbicidal ratio of 70% or more and less than 90%). In addition, the K in the series on Lolium multiflorum Lam. is listed as 0 (Herbicidal ratio of 5% or less (almost no effect)). Further, the L with Apera spica-venti. was 0 (Herbicidal ratio of 5% or less (almost no effect)). Further, the O in the series on Chenopodium album is given as 5 (Herbicidal ratio of 90% or more (almost completely withered)). In addition, the M in the series on Abutilon theophrasti is 3 (Herbicidal ratio of 40% or more and less than 70%). The F with Digitaria ciliaris was 3 (Herbicidal ratio of 40% or more and less than 70%). The J in the series with Alopecurus myosuroides is on record as 0 (Herbicidal ratio of 5% or less (almost no effect)). For the same molecule, in the series on Setaria viridis, the G was 1 (Herbicidal ratio of 5% or more and less than 20%). For the same molecule, the Q in the series with Galium spurium was 1 (Herbicidal ratio of 5% or more and less than 20%). Besides, the I with Avena fatua is 1 (Herbicidal ratio of 5% or more and less than 20%). The H in [4] was 4 (Herbicidal ratio of 70% or more and less than 90%).
For `Cc1nnc(NC(=O)c2ccc(C(F)(F)F)n3c(-c4cccc(Cl)n4)nnc23)o1` [1-055], the “B (Scirpus juncoides) herbicidal ratio grade” value with Scirpus juncoides is 3 (Herbicidal ratio of 40% or more and less than 70%). The “C (Monochoria vaginalis) herbicidal ratio grade” value in the series on Monochoria vaginalis was 3 (Herbicidal ratio of 40% or more and less than 70%). Besides, in series [1], the “A (Echinochloa oryzicola Vasing.) herbicidal ratio grade” value is 3 (Herbicidal ratio of 40% or more and less than 70%). Moreover, the f in [2] was 5 (Herbicidal ratio of 90% or more (almost completely withered)). Also, the c with Glycine max is reported as 0 (Herbicidal ratio of 5% or less (almost no effect)). Further, the b in the series with Zea mays was 0 (Herbicidal ratio of 5% or less (almost no effect)). In addition, in series [3], the d was 3 (Herbicidal ratio of 40% or more and less than 70%). In the series on Brassica campestris L., the g is 4 (Herbicidal ratio of 70% or more and less than 90%). Moreover, the e in the series on Triticum aestivum was 1 (Herbicidal ratio of 5% or more and less than 20%). Moreover, in the series with Veronica persica, the R is 4 (Herbicidal ratio of 70% or more and less than 90%). Further, in the series on Lolium multiflorum Lam., the K was 2 (Herbicidal ratio of 20% or more and less than 40%). Moreover, the L in the series with Apera spica-venti. is 3 (Herbicidal ratio of 40% or more and less than 70%). In addition, the O with Chenopodium album is given as 5 (Herbicidal ratio of 90% or more (almost completely withered)). In addition, the M in the series on Abutilon theophrasti is recorded as 5 (Herbicidal ratio of 90% or more (almost completely withered)). In the series with Digitaria ciliaris, the F was 4 (Herbicidal ratio of 70% or more and less than 90%). Moreover, in the series with Alopecurus myosuroides, the J was 3 (Herbicidal ratio of 40% or more and less than 70%). In addition, the G in the series on Setaria viridis was 3 (Herbicidal ratio of 40% or more and less than 70%). For the same molecule, the Q in the series with Galium spurium is 2 (Herbicidal ratio of 20% or more and less than 40%). The I in the series on Avena fatua was 1 (Herbicidal ratio of 5% or more and less than 20%). For the same molecule, the H in [4] was 4 (Herbicidal ratio of 70% or more and less than 90%).
`C#CCSc1nnc2c(C(=O)Nc3nnc(C)o3)ccc(C(F)(F)F)n12` [1-065]: in the series with Scirpus juncoides, the “B (Scirpus juncoides) herbicidal ratio grade” value was 2 (Herbicidal ratio of 20% or more and less than 40%). The “C (Monochoria vaginalis) herbicidal ratio grade” value in the series with Monochoria vaginalis was 2 (Herbicidal ratio of 20% or more and less than 40%). Also, the “A (Echinochloa oryzicola Vasing.) herbicidal ratio grade” value in series [1] is 1 (Herbicidal ratio of 5% or more and less than 20%). In [2], the f is 4 (Herbicidal ratio of 70% or more and less than 90%). Moreover, in the series on Glycine max, the c is on record as 0 (Herbicidal ratio of 5% or less (almost no effect)). In the series with Zea mays, the b is 0 (Herbicidal ratio of 5% or less (almost no effect)). For the same molecule, the d in [3] was 3 (Herbicidal ratio of 40% or more and less than 70%). Also, the g with Brassica campestris L. is 2 (Herbicidal ratio of 20% or more and less than 40%). The e with Triticum aestivum is reported as 0 (Herbicidal ratio of 5% or less (almost no effect)). For the same molecule, the R with Veronica persica was 3 (Herbicidal ratio of 40% or more and less than 70%). In addition, the K with Lolium multiflorum Lam. is 0 (Herbicidal ratio of 5% or less (almost no effect)). For the same molecule, the L with Apera spica-venti. was 0 (Herbicidal ratio of 5% or less (almost no effect)). Moreover, the O in the series on Chenopodium album is 5 (Herbicidal ratio of 90% or more (almost completely withered)). Further, in the series on Abutilon theophrasti, the M is 3 (Herbicidal ratio of 40% or more and less than 70%). The F in the series with Digitaria ciliaris is 4 (Herbicidal ratio of 70% or more and less than 90%). In the series on Alopecurus myosuroides, the J was 0 (Herbicidal ratio of 5% or less (almost no effect)). For the same molecule, in the series with Setaria viridis, the G was 1 (Herbicidal ratio of 5% or more and less than 20%). Also, the Q with Galium spurium is given as 0 (Herbicidal ratio of 5% or less (almost no effect)). Also, the I with Avena fatua is 1 (Herbicidal ratio of 5% or more and less than 20%). Also, the H in [4] is 1 (Herbicidal ratio of 5% or more and less than 20%).
For `CCC(C)Sc1nnc2c(C(=O)Nc3nnc(C)o3)ccc(C(F)(F)F)n12` (centres unmarked) [1-094], the “B (Scirpus juncoides) herbicidal ratio grade” value with Scirpus juncoides is 3 (Herbicidal ratio of 40% or more and less than 70%). Further, in the series with Monochoria vaginalis, the “C (Monochoria vaginalis) herbicidal ratio grade” value was 3 (Herbicidal ratio of 40% or more and less than 70%). In series [1], the “A (Echinochloa oryzicola Vasing.) herbicidal ratio grade” value was 4 (Herbicidal ratio of 70% or more and less than 90%). In series [2], the f was 5 (Herbicidal ratio of 90% or more (almost completely withered)). Besides, in the series on Glycine max, the c is 4 (Herbicidal ratio of 70% or more and less than 90%). For the same molecule, in the series with Zea mays, the b is 0 (Herbicidal ratio of 5% or less (almost no effect)). Moreover, the d in series [3] is 3 (Herbicidal ratio of 40% or more and less than 70%). Besides, the g with Brassica campestris L. was 3 (Herbicidal ratio of 40% or more and less than 70%). In addition, in the series on Triticum aestivum, the e was 1 (Herbicidal ratio of 5% or more and less than 20%). Moreover, in the series with Veronica persica, the R was 4 (Herbicidal ratio of 70% or more and less than 90%). In the series on Lolium multiflorum Lam., the K is 1 (Herbicidal ratio of 5% or more and less than 20%). Besides, in the series on Apera spica-venti., the L was 1 (Herbicidal ratio of 5% or more and less than 20%). The O in the series on Chenopodium album is listed as 5 (Herbicidal ratio of 90% or more (almost completely withered)). Further, the M with Abutilon theophrasti is 4 (Herbicidal ratio of 70% or more and less than 90%). In the series with Digitaria ciliaris, the F was 5 (Herbicidal ratio of 90% or more (almost completely withered)). Moreover, the J with Alopecurus myosuroides is 1 (Herbicidal ratio of 5% or more and less than 20%). The G in the series with Setaria viridis was 4 (Herbicidal ratio of 70% or more and less than 90%). Further, in the series with Galium spurium, the Q was 0 (Herbicidal ratio of 5% or less (almost no effect)). Besides, the I in the series with Avena fatua was 2 (Herbicidal ratio of 20% or more and less than 40%). For the same molecule, the H in series [4] is 5 (Herbicidal ratio of 90% or more (almost completely withered)).
